Melting point data for two compounds are collected here from patent publication US6379400B1, “Dye compositions and methods of dyeing keratin fibers” (Wella Aktiengesellschaft, priority 1998, dated 2002).

In turn, `COCCNc1ccc([N+](=O)[O-])cc1C` [Example 2, N-(2-methoxyethyl)-2-methyl-4-nitrophenylamine] gave a melting point of 97 to 100 °C.

Consider `COCCNc1ccc([N+](=O)[O-])cc1` [Example 1, N-(2-methoxyethyl)-4-nitro-phenylamine], for which the melting point lay in the range of 85 to 87 °C.
